Reference: US20250368628A1, “METHODS AND COMPOUNDS FOR MODULATING INHERITED GENETIC DISEASES” (Design Therapeutics, Inc., priority 2022, published 2025)

Test system: Myotonic Dystrophy 1 affected patient fibroblasts (Coriel GM04602; 1600 CTG repeats)
Assay: DM1 foci reduction assay (EC50 assay; CAG10-Cy3 FISH, foci per nucleus)
Assay type: cell-based
Settings: Homo sapiens, Fibroblast; DM1 patient fibroblasts, 48 h treatment, foci per nucleus; read-out: DM1 EC50, 48 h
Protocol: DM1 Foci Reduction Assay Methods
Myotonic Dystrophy 1 affected patient fibroblasts (Coriel GM04602; 1600 CTG repeats) and wild type fibroblasts (Coriell GM07492; control line) were cultured separately in Gibco DMEM (1×)+4.5 g/L D-Glucose+L-Glutamine+[…] Sodium Pyruvate, supplemented with 10% FBS and 1× Pen/Strep. Cells were maintained in an incubator at 37° C. and 5% CO2 with media refreshed every 48-72 hours.
At 90-95% confluency, both cell lines were harvested using Trypl-E then pelleted at 500×g for 5 minutes and were resuspended in fresh media. DM1 fibroblasts were seeded in Agilent 96 well black plates at a density of 5,000 cells/well in 200 μL media; and 8 wells were reserved for control fibroblasts. Plates were returned to incubator for 24 hours at 37° C. and 5% CO2.
Compounds were diluted from 10 mM stock to 1 mM in DMSO and then diluted once more to 6 μM (2× concentration) in media. Media was removed from all plates and cells were replenished with 100 μL media. Cells were treated in 8-point dose response, 1:3 fold dilution, 3 μM top dose via addition of 100 μL of 6 μM (2× concentration) compound to the 100 μL media with cells. Plates were returned to incubator for 48 hours at 37° C. and 5% CO2.
Following treatment, compounds were removed, and plates were washed with PBS, then cells were fixed in 75 μL 4% PFA solution for 20 minutes at room temperature. Plates were washed twice with PBS and twice with cold 70% ethanol before permeabilization with 250 μL cold 70% ethanol for 24-72 hours at −20° C.
After permeabilization, plates were washed once with a 30% formamide and 2×SSC buffer and rehydrated in that buffer for 15 minutes at room temperature. Cells were incubated overnight at 37° C. in 75 μL of a hybridization solution containing 30% formamide, 2×SSC, 25 mg/mL dextran sulfate, 2.5 mg/mL BSA, 0.2 μg/mL Herring sperm DNA, 2 mM vanadyl-ribonucleoside complex, and 5 nM CAG10-Cy3 probe.
Plates were washed once with 30% formamide in 2×SSC buffer, then twice with the buffer for 30 minutes at 37° C., 300 RPM in an incubating plate shaker. Cells were stained with 75 μL of 2.5 μg/mL DAPI in PBS for 5 minutes at room temperature. Plates were then washed twice with PBS and stored in 250 μL PBS. Plates were sealed with adhesive foil and wiped down with 70% ethanol.
Cells were imaged on a Cytation5 with a 20× objective sampling from 4 areas of each well. Nuclei were captured under DAPI channel and foci under RFP channel. Plates were analyzed on an average foci per nucleus per well basis.

**Q.** With `CCN(CC)CCCC[C@H](NC(=O)C(C)C)C(=O)NCCOCCOCCOCCOCCOCCNC(=O)CCNC(=O)c1nc(NC(=O)c2cc(NC(=O)CCNC(=O)c3nc(NC(=O)CCCNC(=O)c4cc(NC(=O)c5nc(NC(=O)CCNC(=O)c6cc(NC(=O)c7nccn7C)cn6C)cn5C)cn4C)cn3C)cn2C)cn1C` [Compound B-89] as the molecule, how does the EC50 read?
**A.** > 1000 nM

**Q.** Which EC50 does the source give for `CCN(CC)CCCC[C@H](NC(=O)c1ccccc1)C(=O)NCCOCCOCCOCCOCCOCCNC(=O)CCNC(=O)c1nc(NC(=O)c2cc(NC(=O)CCNC(=O)c3nc(NC(=O)CCCNC(=O)c4cc(NC(=O)c5nc(NC(=O)CCNC(=O)c6cc(NC(=O)c7nccn7C)cn6C)cn5C)cn4C)cn3C)cn2C)cn1C` [Compound B-91] here?
**A.** 500 to 1000 nM

**Q.** `CCN(CC)CCCC[C@H](NC(=O)c1ccncc1)C(=O)NCCOCCOCCOCCOCCOCCNC(=O)CCNC(=O)c1nc(NC(=O)c2cc(NC(=O)CCNC(=O)c3nc(NC(=O)CCCNC(=O)c4cc(NC(=O)c5nc(NC(=O)CCNC(=O)c6cc(NC(=O)c7nccn7C)cn6C)cn5C)cn4C)cn3C)cn2C)cn1C` [Compound B-93] was tested. Which EC50 did it give?
**A.** > 1000 nM

**Q.** `CCN(CC)CCCC[C@H](NC(=O)C1CCN(C)CC1)C(=O)NCCOCCOCCOCCOCCOCCNC(=O)CCNC(=O)c1nc(NC(=O)c2cc(NC(=O)CCNC(=O)c3nc(NC(=O)CCCNC(=O)c4cc(NC(=O)c5nc(NC(=O)CCNC(=O)c6cc(NC(=O)c7nccn7C)cn6C)cn5C)cn4C)cn3C)cn2C)cn1C` [Compound B-96] was tested. Which EC50 did it give?
**A.** 100 to 500 nM

**Q.** With `CCN(CC)CCCC[C@@H](NC(C)=O)C(=O)NCCOCCOCCNC(=O)CCNC(=O)c1nc(NC(=O)CCNC(=O)c2cc(NC(=O)c3nc(NC(=O)CCCNC(=O)c4cc(NC(=O)c5nc(NC(=O)CCNC(=O)c6cc(NC(C)c7nccn7C)cn6C)cn5C)cn4C)cn3C)cn2C)cn1C` (stereo partly shown) [Compound B-97] as the molecule, how does the EC50 read?
**A.** 100 to 500 nM

**Q.** How did the EC50 turn out when `CCN(CC)CCCC[C@@H](NC(C)=O)C(=O)NCCNC(=O)CCNC(=O)c1nc(NC(=O)CCNC(=O)c2cc(NC(=O)c3nc(NC(=O)CCCNC(=O)c4cc(NC(=O)c5nc(NC(=O)CCNC(=O)c6cc(NC(C)c7nccn7C)cn6C)cn5C)cn4C)cn3C)cn2C)cn1C` (stereo partly shown) [Compound B-98] was run?
**A.** > 1000 nM

**Q.** How did the EC50 turn out when `CCN(CC)CCCC[C@@H](NC(=O)C1CCNCC1)C(=O)NCCOCCOCCOCCOCCOCCNC(=O)CCNC(=O)c1nc(NC(=O)c2cc(NC(=O)CCNC(=O)c3nc(NC(=O)CCCNC(=O)c4cc(NC(=O)c5nc(NC(=O)CCNC(=O)c6cc(NC(=O)c7nccn7C)cn6C)cn5C)cn4C)cn3C)cn2C)cn1C` [Compound B-101] was run?
**A.** > 1000 nM

**Q.** How did the EC50 turn out when `CCN(CC)CCCC[C@@H](NC(C)=O)C(=O)NCCOCCOCCNC(=O)CCNC(=O)c1nc(NC(=O)c2cc(NC(=O)CCNC(=O)c3nc(NC(=O)CCCNC(=O)c4cc(NC(=O)c5nc(NC(=O)CCNC(=O)c6cc(NC(=O)c7nccn7C)cn6C)cn5C)cn4C)cn3C)cn2C)cn1C` [Compound B-102] was run?
**A.** 500 to 1000 nM

**Q.** How did the EC50 turn out when `CCN(CC)CCCC[C@@H](NC(C)=O)C(=O)NCCNC(=O)CCNC(=O)c1nc(NC(=O)c2cc(NC(=O)CCNC(=O)c3nc(NC(=O)CCCNC(=O)c4cc(NC(=O)c5nc(NC(=O)CCNC(=O)c6cc(NC(=O)c7nccn7C)cn6C)cn5C)cn4C)cn3C)cn2C)cn1C` [Compound B-103] was run?
**A.** > 1000 nM

**Q.** With `CCCN(CCC)C(=O)c1nc(NC(=O)c2cc(NC(=O)CCNC(=O)c3nc(NC(=O)CCCNC(=O)c4cc(NC(=O)c5nc(NC(=O)CCNC(=O)c6cc(NC(=O)c7nccn7C)cn6C)cn5C)cn4C)cn3C)cn2C)cn1C` [Compound B-104] as the molecule, how does the EC50 read?
**A.** > 1000 nM

**Q.** For `Cn1cc(NC(=O)c2nc(NC(=O)CCNC(=O)c3cc(NC(=O)c4nccn4C)cn3C)cn2C)cc1C(=O)NCCCC(=O)Nc1cn(C)c(C(=O)NCCC(=O)Nc2cc(C(=O)Nc3cn(C)c(C(=O)N4CCC(N5CCNCC5)CC4)n3)n(C)c2)n1` [Compound B-106], which EC50 is on record?
**A.** > 1000 nM

**Q.** With `Cn1cc(NC(=O)c2nc(NC(=O)CCNC(=O)c3cc(NC(=O)c4nccn4C)cn3C)cn2C)cc1C(=O)NCCCC(=O)Nc1cn(C)c(C(=O)NCCC(=O)Nc2cc(C(=O)Nc3cn(C)c(C(=O)NCCC(=O)NCC#N)n3)n(C)c2)n1` [Compound B-112] as the molecule, how does the EC50 read?
**A.** 500 to 1000 nM

**Q.** For `Cn1cc(NC(=O)c2nc(NC(=O)CCNC(=O)c3cc(NC(=O)c4nccn4C)cn3C)cn2C)cc1C(=O)NCCCC(=O)Nc1cn(C)c(C(=O)NCCC(=O)Nc2cc(C(=O)Nc3cn(C)c(C(=O)NCCC(=O)N4CCN(CC5CCNCC5)CC4)n3)n(C)c2)n1` [Compound B-114], which EC50 is on record?
**A.** 500 to 1000 nM

**Q.** How did the EC50 turn out when `CN1CCC(CN2CCN(C(=O)CCNC(=O)c3nc(NC(=O)c4cc(NC(=O)CCNC(=O)c5nc(NC(=O)CCCNC(=O)c6cc(NC(=O)c7nc(NC(=O)CCNC(=O)c8cc(NC(=O)c9nccn9C)cn8C)cn7C)cn6C)cn5C)cn4C)cn3C)CC2)CC1` [Compound B-116] was run?
**A.** > 1000 nM

**Q.** `CN1CCN(CC2CCN(C(=O)CCNC(=O)c3nc(NC(=O)c4cc(NC(=O)CCNC(=O)c5nc(NC(=O)CCCNC(=O)c6cc(NC(=O)c7nc(NC(=O)CCNC(=O)c8cc(NC(=O)c9nccn9C)cn8C)cn7C)cn6C)cn5C)cn4C)cn3C)CC2)CC1` [Compound B-129] was tested. Which EC50 did it give?
**A.** 100 to 500 nM

**Q.** For `CC(=O)N1CCN(C2CCN(C(=O)CCNC(=O)c3nc(NC(=O)c4cc(NC(=O)CCNC(=O)c5nc(NC(=O)CCCNC(=O)c6cc(NC(=O)c7nc(NC(=O)CCNC(=O)c8cc(NC(=O)c9nccn9C)cn8C)cn7C)cn6C)cn5C)cn4C)cn3C)CC2)CC1` [Compound B-130], which EC50 is on record?
**A.** 100 to 500 nM

**Q.** For `CN(C)c1ccc(C#CC#CCNC(=O)CCNC(=O)c2nc(NC(=O)c3cc(NC(=O)CCNC(=O)c4nc(NC(=O)CCCNC(=O)c5cc(NC(=O)c6nc(NC(=O)CCNC(=O)c7cc(NC(=O)c8nccn8C)cn7C)cn6C)cn5C)cn4C)cn3C)cn2C)cc1` [Compound B-133], which EC50 is on record?
**A.** > 1000 nM

**Q.** With `Cn1cc(NC(=O)c2nc(NC(=O)CCNC(=O)c3cc(NC(=O)c4nccn4C)cn3C)cn2C)cc1C(=O)NCCCC(=O)Nc1cn(C)c(C(=O)NCCC(=O)Nc2cc(C(=O)Nc3cn(C)c(C(=O)NCCC(=O)NCC#CC#CC4CCNCC4)n3)n(C)c2)n1` [Compound B-137, 1-methyl-4-(3-{[1-methyl-4-(1-methylimidazole-2-amido)pyrrol-2-yl]formamido}propanamido)-N-(1-methyl-5-{[3-({1-methyl-2-[(2-{[1-methyl-5-({1-methyl-2-[(2-{[5-(piperidin-4-yl)penta-2,4-diyn-1-yl]carbamoyl}ethyl)carbamoyl]imidazol-4-yl}carbamoyl)pyrrol-3-yl]carbamoyl}ethyl)carbamoyl]imidazol-4-yl}carbamoyl)propyl]carbamoyl}pyrrol-3-yl)imidazole-2-carboxamide] as the molecule, how does the EC50 read?
**A.** > 1000 nM

**Q.** With `CN1CCC(C#CC#CCNC(=O)CCNC(=O)c2nc(NC(=O)c3cc(NC(=O)CCNC(=O)c4nc(NC(=O)CCCNC(=O)c5cc(NC(=O)c6nc(NC(=O)CCNC(=O)c7cc(NC(=O)c8nccn8C)cn7C)cn6C)cn5C)cn4C)cn3C)cn2C)CC1` [Compound B-138] as the molecule, how does the EC50 read?
**A.** > 1000 nM

**Q.** Which EC50 does the source give for `CN(C)CC#CC#Cc1ccc(NC(=O)CCNC(=O)c2nc(NC(=O)c3cc(NC(=O)CCNC(=O)c4nc(NC(=O)CCCNC(=O)c5cc(NC(=O)c6nc(NC(=O)CCNC(=O)c7cc(NC(=O)c8nccn8C)cn7C)cn6C)cn5C)cn4C)cn3C)cn2C)cc1` [Compound B-139] here?
**A.** > 1000 nM

**Q.** For `Cn1cc(NC(=O)c2nc(NC(=O)CCNC(=O)c3cc(NC(=O)c4nccn4C)cn3C)cn2C)cc1C(=O)NCCCC(=O)Nc1cn(C)c(C(=O)NCCC(=O)Nc2cc(C(=O)Nc3cn(C)c(C(=O)NCCC(=O)NC4CCNCC4)n3)n(C)c2)n1` [Compound B-140], which EC50 is on record?
**A.** > 1000 nM

**Q.** `CC(=O)N1CCC(NC(=O)CCNC(=O)c2nc(NC(=O)c3cc(NC(=O)CCNC(=O)c4nc(NC(=O)CCCNC(=O)c5cc(NC(=O)c6nc(NC(=O)CCNC(=O)c7cc(NC(=O)c8nccn8C)cn7C)cn6C)cn5C)cn4C)cn3C)cn2C)CC1` [Compound B-141] was tested. Which EC50 did it give?
**A.** > 1000 nM

**Q.** How did the EC50 turn out when `CCN(CC)CCCC[C@@H](NC(C)=O)C(=O)Nc1ccc(OCCOCCOCCOCCOCCOCCOCCNC(=O)CCNC(=O)c2nc(NC(=O)c3cc(NC(=O)CCNC(=O)c4nc(NC(=O)CCCNC(=O)c5cc(NC(=O)c6nc(NC(=O)CCNC(=O)c7cc(NC(=O)c8nccn8C)cn7C)cn6C)cn5C)cn4C)cn3C)cn2C)cc1` [Compound B-145] was run?
**A.** 500 to 1000 nM

**Q.** With `Cn1cc(NC(=O)c2nc(NC(=O)CCNC(=O)c3cc(NC(=O)c4nccn4C)cn3C)cn2C)cc1C(=O)NCCCC(=O)Nc1cn(C)c(C(=O)NCCC(=O)Nc2cc(C(=O)Nc3cn(C)c(C(=O)NCCC(=O)NCCOCCN4CCN(C5CCN(c6ccc(N)cc6)CC5)CC4)n3)n(C)c2)n1` [Compound B-155] as the molecule, how does the EC50 read?
**A.** > 1000 nM

**Q.** How did the EC50 turn out when `Cn1cc(NC(=O)c2nc(NC(=O)CCNC(=O)c3cc(NC(=O)c4nccn4C)cn3C)cn2C)cc1C(=O)NCCCC(=O)Nc1cn(C)c(C(=O)NCCC(=O)Nc2cc(C(=O)Nc3cn(C)c(C(=O)NCCC(=O)N4CCN(C5CCN(c6ccc(N)cc6)CC5)CC4)n3)n(C)c2)n1` [Compound B-156] was run?
**A.** > 1000 nM
